Earlier results as cited in patent publication US20070105756A1 (priority 2005, published 2007).

System: sensitive individuals
Conditions: oral route

For NCCc1c[nH]cn1 [histamine], the “histamine concentration known to be biologically active” value is listed as over 5 nM.
